The record followed here is US12048680B2, “Use of Gemfibrozil and derivative thereof for treatment and/or prevention of neurodegenerative disease” (Kunming Institute of Zoology Chinese Academy of Sciences, priority 2018, dated 2024).

The structures appear in SMILES notation.

This experiment relates to astrocytes and microglia. The experiment in a line: Immunofluorescence staining of mouse brain tissue, glia co-localization with Aβ plaques. As to conditions: brain tissue of APP/PS1ΔE9 mice. The class given is in vivo.

In the case of `Cc1ccc(C)c(OCCCC(C)(C)C(=O)O)c1` [Gemfibrozil, 2,2-dimethyl-5-(2,5-dimethylphenoxy) pentanoic acid], the “degree of co-localization of the marker Iba1 for microglia with Aβ plaques” value (vs control APP/PS1ΔE9 mice (A-B in FIG. 6)) is “significantly increased”. Moreover, the “degree of co-localization of GFAP for astrocytes with Aβ plaques” value (vs control APP/PS1ΔE9 mice (C-D in FIG. 6)) was “significantly increased”.
